For data set [1], the system named is neonate rat cardiomyocyte cells. Put plainly: Hypoxia/ischemia in neonatal rat cardiomyocyte cultures, LDH release. In kind it is cell-based. The note with it: 30, 100 and 300 nm compound vs 1 μM TPEN; 150 min ischemia then reoxygenation. On the procedure:
Rat hearts (1-2 days old) were sterilely removed and bathed three times in Ca^2+- and Mg^2+-free PBS to remove excess blood cells. The hearts were minced to small fragments and then agitated in a proteolytic enzyme-RDB solution prepared from a fig tree extract as described previously (Brik et al., 1990; Shneyvays et al., 2001). The RDB was diluted 1:200 in PBS at 25° C. for a few cycles of 10 min each. The supernatant suspension containing dissociated cells, to which medium containing 10% horse serum was added, was centrifuged at 500 g for 5 min. After centrifugation, the supernatant phase was discarded, and cells were resuspended in Dulbecco's modified Eagle medium supplemented with 10% heat-inactivated horse serum and 0.5% chick embryo extract. Cell suspensions were diluted to 1×10^6 cells/ml, and 300 μl was placed in 24 well plates (4 plates) collagen/gelatin-coated plastic culture dishes. Cultures were incubated in a humidified atmosphere of 5% CO2 and 95% air at 37° C. […] The growth medium was replaced every 3 days. The experiments were performed in vitro on these cardiomyocyte cultures after 3 to 5 days. […]
LDH activity was determined using LDH-L kit (Thermo Trace, Melbourne, Australia) within the cardiac cell medium (PBS). […] LDH enzymatic activity was measured in a spectrophotometer at a wavelength of 340 nm at 30° C. […]

Data set [2] concerns model of ischemia/reperfusion in the CD rat. The data set can be described thus: Rat model of ischemia/reperfusion, infarct analysis (Phase B). In kind it is in vivo. The note with it: positive control 5000 IU/kg bolus intravenous injection. On the procedure: This study was conducted to evaluate the effects of the Compound #6 on cardiac function, infarct size, and Troponin I levels in a model of ischemia/reperfusion in the CD® (CR1CD® (SD)) rat. Phase A was conducted for toxicity evaluation purposes. In Phase B (the efficacy phase), two treatment groups of eight male rats were administered Compound #6 at dose levels of 0.2 and 2 mg/kg via intravenous infusion following myocardial infarction. The 2 mg/kg dose of Compound #6 was administered intravenously via a slow infusion starting 3 to 14 minutes prior to reperfusion and continuing for 20 minutes to 20 minutes and 32 seconds, which was approximately 6 to 17 minutes after reperfusion (depending on the infusion start time). The 0.2 mg/kg dose of Compound #6 was administered intravenously via a slow infusion starting 10 minutes prior to reperfusion and continuing for 30 minutes to 30 minutes and 30 seconds, which was approximately 20 minutes after reperfusion.
The animals were placed on mechanical ventilation and […]. Once anesthetized, the animal was placed in a right lateral recumbency, an arterial catheter or polyethylene tube was placed in the carotid artery for monitoring blood pressure and a thoracotomy was performed. The left coronary artery (LCA) was identified. A ligature was placed around the LCA and the vessel was ligated. The LCA was maintained occluded for 29 to 43 minutes. Occlusion of the vessel was verified via blanching of the heart and via ST interval changes. At the end of the occlusion period, the knot was loosened leaving the ligature in place, and the vessel was allowed to reperfuse for 3 hours 27 minutes to 4 hours 51 minutes. Following infarct, a chest tube was placed, the deep and superficial muscle layers were sutured at the surgical incision, and the skin was closed with staples. The chest tube was removed after spontaneous respiration was established. In Phase A, the animals were recovered from anesthesia and evaluated for 4 days. In Phase B, animals were maintained under anesthesia for 3 hours 27 minutes to 4 hours 51 minutes prior to being submitted to necropsy.
(§1) In Phase B, Compound #6 was administered once on Day 0 via intravenous infusion at dose levels of 0.2 and 2 mg/kg. The doses were administered at a dose volume of 1 mL/kg (0.05 [2 mg/kg] or 0.033 [0.2 mg/kg] mL/kg/minute). Two control groups received the vehicle (saline) or the vehicle for Compound #6 (10% (w/v) 2-hydroxypropyl-beta-cyclodextrin and 100 mM sodium chloride in deionized water) in the same manner as the 2 mg/kg treated group. The vehicles and 2 mg/kg Compound #6 were administered intravenously via a slow infusion starting 3 to 14 minutes prior to reperfusion and continuing for 20 minutes to 20 minutes and 32 seconds, which was approximately 6 to 17 minutes after reperfusion (depending on the infusion start time). The 0.2 mg/kg Compound #6 was administered intravenously via a slow infusion starting 10 minutes prior to reperfusion and continuing for 30 minutes to 30 minutes and 30 seconds, which was approximately 20 minutes after reperfusion. The positive control article, Erythropoietin, was administered at 5000 IU/kg via a bolus intravenous injection. The positive control article dose was administered at a dose volume of 2.5 mL/kg. The positive control was administered via a 3 to 60 second injection at 5 minutes prior to reperfusion.
After LAD reperfusion (4 hours), the animals were euthanized by an intraperitoneal injection of sodium pentobarbital followed by exsanguination via severing the abdominal vena cava. The heart was flushed with heparinized Lactated Ringers Solution (LRS) until clear of blood and the LAD was tied off using the same ligature used to occlude the vessel and Evan Blue dye was injected. The heart was weighed and breadloafed (4-5 sections per animal). […]

For data set [3] the test system is unchanged. The data set can be described thus: Rat model of ischemia/reperfusion, cardiovascular monitoring (blood pressure, heart rate; Phase B). The note with it: positive control 5000 IU/kg bolus; within 5-10 minutes of reperfusion. In kind it is in vivo. On the procedure:
The animals in Phase B were monitored for selected cardiovascular endpoints from at least 15 minutes prior to acute myocardial infarction until at approximately 1 hour post reperfusion. Blood samples for the evaluation of Troponin I were collected from all surviving Phase B animals prior to coronary artery occlusion and at termination. At study termination, the Phase B animals were submitted to necropsy for limited necropsy examinations and infarct analysis.
as §1
In Phase B, animals were anesthetized for monitoring of selected cardiovascular parameters. For experimentation, the blood pressure catheter implanted in the carotid artery was attached to an external transducer and data acquisition was started. Blood pressure (systolic, diastolic, and mean arterial) and heart rate (derived from blood pressure) were monitored from at least 15 minutes prior to acute myocardial infarction (AMI) until at least 1 hour after reperfusion. Individual animal cardiovascular data tables are not reported but are maintained in the study file.

The test system of the next data set is PC12 cells. Put plainly: PC12 ischemic model (oxygen and glucose deprivation), cell death by LDH measurement. In kind it is cell-based. As to conditions: for protection percentile: protection from cell death, FIG. 6B: identical for both compounds. On the procedure: PC12 cells were grown in 25 cm^2 flasks in Dulbecco's modified Eagles Medium (DMEM), supplemented with 7% fetal bovine serum (FBS), 7% horse serum, […] penicillin and 100 μg/ml streptomycin. Cells were grown in humidified incubator 5% CO2, 95% air at 37° C. The medium was replaced every 2 days, and upon 70% confluence, the cells were counted and seeded for the ischemia experiments.
Approximately 1×10^6 PC12 cells/well were cultured and exposed to ischemia (oxygen and glucose deprivation=OGD) for 4.5 hr. Prior to the exposure, the growth medium was replaced with glucose-free DMEM (1 ml/well). Ischemia was performed in a closed chamber by replacement of air with 95% nitrogen/5% CO2.
Ischemic stress injury was characterized by lactate dehydrogenase (LDH) released from cells. After 4.5 hr of ischemia, a 50 μl sample of supernatant was taken from each well for LDH measurement. At the end of the ischemic insult (after 4.5 hr), glucose (at final concentration of 4.5 g/L by adding 10 μl from stock solution of 450 mg/ml per well (1 ml)) was added to the plates which underwent ischemia. The plates were then transferred to a humidified incubator and exposed to 95% air/5% CO2 at 37° C. for additional 18 hr of reoxygenation. DMEM supernatant samples (25 μl/well) were collected from each well for LDH measurements. The samples were centrifuged at 3500 rpm for 5 min, and 5 μl aliquots of supernatant was taken for LDH measurement.
For every experiment, a duplicate plate was prepared as a control study under normoxia. Cells were kept in a humidified incubator (5% CO2 and 95% air at 37° C.) in cell culture complete medium at a volume of 1 ml for 18 hr, and the same compounds were added with the same concentrations. Supernatant was collected for LDH measurement as indicated in the LDH activity measurement section below. Afterwards (at the end of the reoxygenation phase), the plates were frozen (at −70° C. for 30 min) and thawed once. 25 μl/well sample was collected and the samples were centrifuged at 3500 rpm for 5 min and then taken for LDH measurement (total).
LDH activity was determined using LDH-L kit (Pointe Scientific Inc., Michigan, USA) in the PC12 cell medium. Medium samples (5 μl) were collected at the end of the ischemic insult (after 4.5 hr) and after the reoxygenation period. In parallel, samples from the plates exposed to normoxia were collected. LDH enzymatic activity was measured in a spectrophotometer at a wavelength of 340 nm at 37° C. Data analysis was performed as follows: [OD (cycle 3)−OD (cycle 1)experiment]−[OD(3)−OD(1) control])/[OD(3)−OD(1) total]×100, and presented as percentage of total cell death.
One day before the experiment, 12-well plates were coated with 200 μg/ml type I rat tail collagen (BD Biosciences, Bedford, Mass.) and were further sterilized under UV. 1×10^6 PC12 undifferentiated cells/well were seeded on the plates and allowed to adhere overnight under regular conditions (DMEM medium high glucose 4.5 mg/ml, 5% CO2 and 95% air at 37° C.). Each experiment included 4 plates, two for normoxia and two for ischemia which underwent the same following treatment for all 4 plates.
A half hour before the onset of the ischemic insult, the antioxidant Tempol (4-hydroxy-2,2,6,6-tetramethylpiperidine-1-oxyl) (Sigma, St. Louis, Mo.) at a concentration of 0.5 mM (10 μl/well taken from a 8.6 mg/ml stock solution) or TPEN at a concentration of 3 μM and 10 μM were added to the plates. Before the experiments, the medium was replaced with DMEM glucose free medium at 1 ml volume/well. TPEN or 10 μl Tempol were again added to the appropriate wells and was maintained throughout all experiments.
Thereafter, the plates were introduced into a device inducing ischemia atmosphere with 95% nitrogen and 5% CO2 for 4.5 hr. Oxygen level was monitored online by a digital oxygen monitor showing up to 1%. At the end of OGD, 25 μl from each well was collected into 0.5 ml tubes for the LDH assay. […]

Marks after values point to notes of the source that are not given here.

With `c1c[nH]c(CN(CCN(Cc2ncc[nH]2)Cc2ncc[nH]2)Cc2ncc[nH]2)n1` [Compound #4], in data set [1], the “protective effect against hypoxic insult (LDH release) compared with TPEN, FIG. 1A” value is “only slightly more effective than TPEN”.
“EPO: positive control article, erythropoietin [reference compound]”: the “cardiac damage compared to saline control animals, in words” value in data set [2] was “significantly less cardiac damage”. The “Infarct/AAR (%) Mean” value in data set [2] (4 hour reperfusion, rat) was 22^b %. Moreover, the “Infarct/LV (%) Mean” value in data set [2] (rat) came to 8%. In addition, the “mean arterial pressures after reperfusion” value in data set [3] was “increased”.
For `c1ccc(CN(CCN(Cc2ccccn2)Cc2ccccn2)Cc2ccccn2)nc1` [TPEN, N,N,N′,N′-tetrakis-(2-pyridylmethyl)-ethylenediamine, reference compound], the “reducing death of PC12 cells subjected to ischemia (LDH), FIG. 2” value in the data set with PC12 cells (10 μM, 4.5 hours ischemia) is given as “effective”. Moreover, the “reducing death of PC12 cells, comparison vs. Tempol, FIG. 2” value in the data set on PC12 cells (TPEN 10 μM vs Tempol 0.5 mM, 4.5 hours ischemia) is listed as “significantly effective vs. Tempol”. For the same compound, the figures for the “protection percentile: protection from cell death, FIG. 6B” value in the data set on PC12 cells (first of two selected concentrations (not given)) and in the data set on PC12 cells (second of two selected concentrations (not given)) were 7% and 19%, respectively.
